Assay results reported in patent US20240366543A1, “METHODS OF TREATING METHYLMALONIC ACIDEMIA AND PROPIONIC ACIDEMIA” (HemoShear Therapeutics, Inc., priority 2021, published 2024).

Tests used:
[1] = tested on: primary hepatocytes of propionic acidemia patients; assay: Propionyl-CoA from 13C-labelled sources in PA primary hepatocytes (Example 1); assay type: cell-based, human; conditions: 0-100 μM
Description: Primary hepatocytes isolated from livers of propionic acidemia patients are treated with increasing doses of Compound 5 (0, 0.1, 0.3, 1, 3, 10, 30, 100 μM) for 30 minutes. After 30 minutes the cells are challenged with the different sources of P-CoA, which may include 13C-KIVA (1 mM), 13C-isoleucine (3 mM), 13C-threonine (5 mM), 13C-methionine (5 mM), 13C-heptanoate (100 μM), or 13C-propionate (5 mM) for 60 minutes. At the end of the challenge period, media is removed and the cells are lysed with 70% MeCN and 0.1% TFA containing 100 μM of ethymalonyl-CoA as an internal standard and harvested. Cell lysates are processed for HTMS/MS analysis.

[2] = tested on: Normal pHeps; assay: HemoShear Technology, normal pHeps; assay type: cell-based, human; conditions: exposed 6 days
From the text: For this experiment, we deployed the HemoShear REVEAL-Tx™ technology, which is based on the cone-and-plate configuration or viscometer combined with a porous polycarbonate membrane that mimics a filtering layer of sinusoidal endothelial cells (see: Dash A, Deering TG, Marukian S, et al. Physiological Hemodynamics and Transport Restore Insulin and Glucagon Responses in a Normal Glucose Milieu in Hepatocytes In Vitro. 73rd Scientific Sessions of the American Diabetes Association, 2013 (Chicago), and U.S. Pat. Nos. 7,811,782 and 9,500,642, and 9,617,521, each of which is incorporated by reference herein in its entirety). […]
In PA and MMA pHeps, where P-CoA and M-CoA levels are very high, there is a dramatic reduction in P-CoA and M-CoA pools with Compound 5 treatment (Table 2 and Table 3). […] The effect of Compound 5 on levels of acetyl-CoA were measured in PA and MMA pHeps in acute static experiments and in PA, MMA and normal pHeps following chronic exposures in the HemoShear Technology (FIG. 5B; FIG. 6B). […]
To further evaluate the hypothesis that Compound 5 drives a redistribution of the acyl-CoA pools resulting in a reduction in P-CoA and M-CoA, the levels of CoASH were measured in the PA and MMA disease models. […]

[3] = tested on: Hepatocytes from propionic academia patients; assay: Ureagenesis (15N-urea) in HemoShear REVEAL-Tx technology (Example 3); assay type: cell-based, human; conditions: PA primary hepatocytes, treated day 5 to day 7, 15N-NH4Cl 4 hrs
From the text: For this experiment, we deployed the HemoShear REVEAL-Tx™ technology, which is based on the cone-and-plate configuration or viscometer combined with a porous polycarbonate membrane that mimics a filtering layer of sinusoidal endothelial cells (see: Dash A, Deering TG, Marukian S, et al. Physiological Hemodynamics and Transport Restore Insulin and Glucagon Responses in a Normal Glucose Milieu in Hepatocytes In Vitro. 73rd Scientific Sessions of the American Diabetes Association, 2013 (Chicago), and U.S. Pat. Nos. 7,811,782 and 9,500,642, and 9,617,521, each of which is incorporated by reference herein in its entirety).
Hepatocytes from propionic academia patients are plated in a collagen gel sandwich on one side of the membrane replicating the polarized orientation found in vivo within the hepatic sinusoids. On the other side, medium is continuously perfused and surface shear rates are applied across a range of physiological values derived from sinusoidal flow rates in vivo while also controlling transport in the system with in- and out-flow tubing to each compartment. […]
Hepatocytes are treated with increasing doses of Compound 5 (0, 0.1, 0.3, 1, 3, 10, 30, 100 μM) in the HemoShear REVEAL-Tx™ technology from day 5 to day 7. […] After 4 hrs, cells are washed 2× in saline solution and lysed, scraped and harvested using 80% methanol. ^15N-urea is measured by GCMSMS.

[4] = tested on: primary hepatocyte model of isovaleric acidemia; assay: Isovaleryl-CoA from 13C-leucine in primary hepatocyte model of isovaleric acidemia (Example 4); assay type: cell-based; conditions: primary hepatocytes with/without isovaleryl-CoA dehydrogenase inhibitor
Description: Primary hepatocytes are treated with increasing doses of Compound 5 (0, 0.1, 0.3, 1, 3, 10, 30, 100 μM) with and without an inhibitor for isovaleryl-CoA dehydrogenase for 30 min. After 30 min the cells are challenged with 13C-leucine. At the end of the challenge period, media is removed and the cells are lysed with 70% MeCN and 0.1% TFA containing 100 μM of ethymalonyl-CoA as an internal standard and harvested. Cell lysates are processed for HTMS/MS analysis.

SMILES: CCC(C)(C)C(=O)O [Compound 5, 2,2-dimethylbutyric acid]
- intracellular propionyl-CoA from all sources investigated [1]: dose-dependent reduction
- Percent change at 30 μM, 12C-Acetyl-CoA [2]: 20 ± 2.9%
- Percent change at 30 μM, CoASH [2]: −35.2 ± 3%
- 15N-urea (ureagenesis) [3]: dose-dependent increase
- intracellular isovaleryl-CoA derived from 13C-leucine [4]: dose-dependent reduction
